Experiments:
Test in all cases: Antibiotics sensitivity, agar dilution MIC
Format in all cases: cell-based
[1] = system: Bifidobacterium adolescentis SPM0308; details: strain SPM0308; Table 5
Method: (§1) Antibiotics sensitivity test was performed for comparative analysis of phenotypes of the lactobacillus strain separated in Example 1 and standard strains purchased from KCTC. In order to find out the minimum inhibitory concentrations (MICs) of 18 kinds of antibiotics (ampicillin, mupirocin, amoxicillin/clavulanic acid, oxacillin, cefonicid, cefazolin, ceftazidime, cefotaxime, ceftriaxone, tigecyclin, streptomycin, vancomycin, teicoplanin, daptomycin, linezolid, clindamycin, quinupristin/dalfopristin and tobramycin), agar dilution method was performed according to the Clinical and Laboratory Standards Institute (CLSI, 2003), and the results were listed in Tables 4 and 5.

[2] = system: Bifidobacterium longum KCTC3128; details: strain KCTC3128; Table 5
Method: as §1

[3] = system: Bifidobacterium adolescentis SPM1005; details: strain SPM1005; Table 5
Method: as §1

[4] = system: Bifidobacterium pseudocatenulatum SPM1309; details: strain SPM1309; Table 5
Method: as §1

[5] = system: Bifidobacterium adolescentis SPM1608; details: strain SPM1608; Table 5
Method: as §1

[6] = system: Bifidobacterium adolescentis SPM1605; details: strain SPM1605; Table 5
Method: as §1

[7] = system: Bifidobacterium adolescentis SPM1604; details: strain SPM1604; Table 5
Method: as §1

[8] = system: Bifidobacterium adolescentis SPM0214; details: strain SPM0214; Table 5
Method: as §1

[9] = system: Bifidobacterium adolescentis SPM1606; details: strain SPM1606; Table 5
Method: as §1

[10] = system: Bifidobacterium longum SPM1206; details: strain SPM1206; Table 5
Method: as §1

[11] = system: Bifidobacterium pseudocatenulatum KCTC3223; details: strain KCTC3223; Table 5
Method: as §1

[12] = system: Bifidobacterium adolescentis KCTC3352; details: strain KCTC3352; Table 5
Method: as §1

[13] = system: Bifidobacterium adolescentis SPM1307-A; details: strain SPM1307-A; Table 5
Method: as §1

[14] = system: Bifidobacterium pseudocatenulatum SPM1204; details: strain SPM1204; Table 5
Method: as §1

[15] = system: Bifidobacterium adolescentis SPM1601; details: strain SPM1601; Table 5
Method: as §1

[16] = system: Bifidobacterium longum SPM1205; details: strain SPM1205; Table 5
Method: as §1

[17] = system: Bifidobacterium adolescentis SPM0212; details: strain SPM0212; Table 5
Method: as §1

[18] = system: Bifidobacterium longum SPM1207; details: strain SPM1207; Table 5
Method: as §1

Row | Compound | Minimum inhibitory concentrations (MICs) [1] | Minimum inhibitory concentrations (MICs) [2] [μl/Ml] | Minimum inhibitory concentrations (MICs) [3] [μl/Ml] | Minimum inhibitory concentrations (MICs) [4] [μl/Ml] | Minimum inhibitory concentrations (MICs) [5] | Minimum inhibitory concentrations (MICs) [6] [μl/Ml] | Minimum inhibitory concentrations (MICs) [7] | Minimum inhibitory concentrations (MICs) [8] [μl/Ml] | Minimum inhibitory concentrations (MICs) [9] | Minimum inhibitory concentrations (MICs) [10] [μl/Ml] | Minimum inhibitory concentrations (MICs) [11] [μl/Ml] | Minimum inhibitory concentrations (MICs) [12] [μl/Ml] | Minimum inhibitory concentrations (MICs) [13] [μl/Ml] | Minimum inhibitory concentrations (MICs) [14] [μl/Ml] | Minimum inhibitory concentrations (MICs) [15] [μl/Ml] | Minimum inhibitory concentrations (MICs) [16] | Minimum inhibitory concentrations (MICs) [17] | Minimum inhibitory concentrations (MICs) [18]
1 | CCC[C@@H]1C[C@@H](C(=O)N[C@@H]([C@H]2O[C@H](SC)[C@H](O)[C@@H](O)[C@H]2O)[C@H](C)Cl)N(C)C1 [CLI, clindamycin] | 32 μl/Ml | 4 | 32 | 8 | 8 μl/Ml | 4 | 4 μl/Ml | 32 | 4 μl/Ml | 8 | 8 | 4 | 4 | >128 | 16 | 4 μl/Ml | 4 μl/Ml | –
2 | CCCCCCCCCC(=O)N[C@@H](Cc1c[nH]c2ccccc12)C(=O)N[C@H](CC(N)=O)C(=O)N[C@@H](CC(=O)O)C(=O)N[C@@H]1C(=O)NCC(=O)N[C@@H](CCCN)C(=O)N[C@@H](CC(=O)O)C(=O)N[C@H](C)C(=O)N[C@@H](CC(=O)O)C(=O)NCC(=O)N[C@H](CO)C(=O)N[C@@H]([C@H](C)CC(=O)O)C(=O)N[C@@H](CC(=O)c2ccccc2N)C(=O)O[C@@H]1C [DAP, daptomycin] | 0.25 μl/Ml | 16 | 1 | 4 | 8 μl/Ml | 4 | 4 μl/Ml | 2 | 0.12 μl/Ml | 4 | 16 | 16 | 8 | 2 | 4 | 2 μl/Ml | 4 μl/Ml | –
3 | CC(=O)NC[C@H]1CN(c2ccc(N3CCOCC3)c(F)c2)C(=O)O1 [LNZ, linezolid] | 2 μl/Ml | 8 | 4 | 2 | 8 μl/Ml | 4 | 1 μl/Ml | 0.25 | 2 μl/Ml | 1 | 8 | 8 | 8 | 8 | 8 | 2 μl/Ml | 8 μl/Ml | –
4 | [H]/N=C(/N)N[C@H]1[C@H](O)[C@@H](O)[C@H](O[C@@H]2O[C@@H](C)[C@](O)(C=O)[C@H]2O[C@@H]2O[C@@H](CO)[C@H](O)[C@@H](O)[C@@H]2NC)[C@@H](N/C(N)=N\[H])[C@@H]1O [STR, streptomycin] | 32 μl/Ml | 128 | 32 | 32 | 32 μl/Ml | 32 | ≦0.06 μl/Ml | 32 | 0.25 μl/Ml | 8 | 128 | 128 | 64 | 128 | 64 | 8 μl/Ml | 128 μl/Ml | –
5 | CN(C)c1cc(NC(=O)CNC(C)(C)C)c(O)c2c1C[C@H]1C[C@H]3[C@H](N(C)C)C(O)=C(C(N)=O)C(=O)[C@@]3(O)C(O)=C1C2=O [TIG, tigecyclin] | ≦0.06 μl/Ml | 0.5 | 0.5 | 0.25 | ≦0.06 μl/Ml | 0.5 | ≦0.06 μl/Ml | 0.25 | 0.12 μl/Ml | 0.12 | 0.5 | 0.5 | 0.25 | 0.5 | 0.25 | ≦0.06 μl/Ml | ≦0.06 μl/Ml | –
6 | NC[C@H]1O[C@H](O[C@H]2[C@H](O)[C@@H](O[C@H]3O[C@H](CO)[C@@H](O)[C@H](N)[C@H]3O)[C@H](N)C[C@@H]2N)[C@H](N)C[C@@H]1O [TOB, tobramycin] | 32 μl/Ml | >128 | 32 | >128 | 128 μl/Ml | 16 | 16 μl/Ml | 32 | 16 μl/Ml | 32 | >128 | >128 | 64 | 128 | 32 | 4 μl/Ml | >128 μl/Ml | –
7 | CN[C@H](CC(C)C)C(=O)N[C@H]1C(=O)N[C@@H](CC(N)=O)C(=O)N[C@H]2C(=O)N[C@H]3C(=O)N[C@H](C(=O)N[C@H](C(=O)O)c4cc(O)cc(O)c4-c4cc3ccc4O)[C@H](O)c3ccc(c(Cl)c3)Oc3cc2cc(c3O[C@@H]2O[C@H](CO)[C@@H](O)[C@H](O)[C@H]2O[C@H]2C[C@](C)(N)[C@H](O)[C@H](C)O2)Oc2ccc(cc2Cl)[C@H]1O [VAN, vancomycin] | 2 μl/Ml | 4 | 2 | 2 | 2 μl/Ml | 2 | ≦0.06 μl/Ml | 2 | ≦0.06 μl/Ml | 2 | 4 | 2 | 2 | 2 | 2 | 2 μl/Ml | 2 μl/Ml | 2 μl/Ml
8 | teicoplanin [TEC] | 2 μl/Ml | 2 | 1 | 0.25 | 2 μl/Ml | 1 | ≦0.06 μl/Ml | 2 | ≦0.06 μl/Ml | 1 | 2 | 2 | 0.5 | 2 | 2 | 0.5 μl/Ml | 2 μl/Ml | 1

— US20130259835A1, “BIFIDOBACTERIUM ADOLESCENTIS SPM0212 HAVING ANTIVIRAL ACTIVITY FOR HEPATITIS B VIRUS, AND PHARMACEUTICAL COMPOSITION FOR PREVENTING AND TREATING HEPATITIS B COMPRISING THEREOF” (SAHMYOOK UNIVERSITY INDUSTRY-ACADEMIC COOPERATION, priority 2011, published 2013)
